Data reported in ChEMBL document CHEMBL4184193, “Design, synthesis, and opioid activity of arodyn analogs cyclized by ring-closing metathesis involving Tyr(allyl)” (Bioorg Med Chem, 2018).
Values belong to the compound of their own block, whether it stands above or below them. Where a SMILES comes first, the peptide text is derived from it. [ ]: non-standard residue; d: D form.

How the values were obtained:
[1] = biological target: Kappa-type opioid receptor (Rattus norvegicus) (UniProt P34975); assay: Antagonist activity at rat kappa opioid receptor expressed in CHO cell membranes assessed as inhibition of Dyn A-(1-13)NH2-induced [35S]GTPgammaS binding at 10 uM relative to control; assay type: functional
Chain of Kappa-type opioid receptor (Rattus norvegicus) (P34975 whole entry): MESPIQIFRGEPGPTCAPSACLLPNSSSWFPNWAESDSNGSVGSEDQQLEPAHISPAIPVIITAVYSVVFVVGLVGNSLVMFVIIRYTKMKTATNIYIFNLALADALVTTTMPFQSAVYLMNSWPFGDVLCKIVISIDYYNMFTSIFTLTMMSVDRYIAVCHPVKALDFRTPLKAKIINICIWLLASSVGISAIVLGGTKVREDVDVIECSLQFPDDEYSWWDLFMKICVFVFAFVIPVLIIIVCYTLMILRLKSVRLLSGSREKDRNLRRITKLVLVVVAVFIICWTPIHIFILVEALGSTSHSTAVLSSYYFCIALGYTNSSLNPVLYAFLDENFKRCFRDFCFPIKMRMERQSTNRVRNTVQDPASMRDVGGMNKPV

[2] = biological target: Kappa-type opioid receptor (Rattus norvegicus) (UniProt P34975); assay: Antagonist activity at rat kappa opioid receptor expressed in CHO cell membranes assessed as inhibition of Dyn A-(1-13)NH2-induced [35S]GTPgammaS binding by schild analysis; assay type: functional
[3] = biological target: Delta-type opioid receptor (Rattus norvegicus, UniProt P33533); assay: Displacement of [3H]DPDPE from rat delta opioid receptor expressed in CHO cells after 90 mins by scintillation counting analysis; assay type: cell-based
Chain of Delta-type opioid receptor (P33533 whole entry): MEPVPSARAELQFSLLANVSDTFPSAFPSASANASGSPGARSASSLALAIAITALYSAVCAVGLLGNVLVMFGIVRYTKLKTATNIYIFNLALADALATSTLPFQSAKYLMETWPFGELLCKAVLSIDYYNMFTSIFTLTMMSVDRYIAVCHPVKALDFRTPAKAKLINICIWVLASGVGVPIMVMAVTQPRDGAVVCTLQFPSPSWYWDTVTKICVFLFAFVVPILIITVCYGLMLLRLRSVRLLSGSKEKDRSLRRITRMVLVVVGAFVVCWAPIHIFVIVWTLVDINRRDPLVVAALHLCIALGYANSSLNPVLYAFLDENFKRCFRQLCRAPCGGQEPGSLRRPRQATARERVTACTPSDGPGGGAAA

Compound: CC[C@H](C)[C@H](NC(=O)[C@H](CCCNC(=N)N)NC(=O)[C@@H]1C/C=C/COc2ccc(cc2)C[C@H](NC(=O)[C@H](Cc2ccccc2)NC(=O)[C@H](Cc2ccccc2)NC(C)=O)C(=O)N[C@@H](CCCNC(=N)N)C(=O)N1)C(=O)N[C@@H](CCCNC(=N)N)C(=O)N1CCC[C@H]1C(=O)N[C@@H](CCCCN)C(N)=O
- inhibition [1]: 3.3%

Compound: CC(=O)N[C@@H](Cc1ccccc1)C(=O)N[C@@H](Cc1ccccc1)C(=O)N[C@@H](Cc1ccccc1)C(=O)N[C@@H](CCCN=C(N)N)C(=O)N[C@@H](CC(C)C)C(=O)N[C@@H](CCCN=C(N)N)C(=O)N[C@@H](CCCN=C(N)N)C(=O)N[C@@H](C)C(=O)N[C@@H](CCCN=C(N)N)C(=O)N1CCC[C@H]1C(=O)N[C@@H](CCCCN)C(N)=O (Ac-FFFRLRRARPK-NH2)
- Kb [2]: 17 nM

- Ki [3]: > 5000 nM
Compound: CC(=O)N[C@@H](Cc1ccccc1)C(=O)N[C@@H](Cc1ccccc1)C(=O)N[C@@H](Cc1ccccc1)C(=O)N[C@@H](CCCNC(=N)N)C(=O)N[C@@H](CC(C)C)C(=O)N[C@@H](CCCNC(=N)N)C(=O)N[C@@H](CCCNC(=N)N)C(=O)N[C@H](C)C(=O)N[C@@H](CCCNC(=N)N)C(=O)N1CCC[C@H]1C(=O)N[C@@H](CCCCN)C(N)=O (Ac-FFFRLRR[dA]RPK-NH2)
